Series [1] in a line: solubility in aqueous media. It counts as physicochemical. The text has this:
Therefore it is not straightforward or easy to formulate it into pharmaceutical compositions, e.g. for oral administration.

Series [2] can be described thus: stability in the solid state (heat, heat/humidity, light). Format: physicochemical. The following applies: after one week at 80° C. in a close container, or at 80° C./75% r.h. in open container, or upon exposure to light (1200 kLux, 300-800 nm). The text has this:
Criteria for selecting the salts of the invention include i) dissolution in water, with measurement of degradation products, and decoloration, ii) stability against heat in solid state, iii) exposure to light (e.g. Xenon light), iv) corosivity to steel.

The structures appear in SMILES notation.

On to `CN1CCN(c2nc(C3=C(c4c[nH]c5ccccc45)C(=O)NC3=O)c3ccccc3n2)CC1` [free base, 3-(1.H.-indol-3-yl)-4-[2-(4-methyl-piperazin-1-yl)-quinazolin-4-yl]-pyrrole-2,5-dione], for which the “solubility in aqueous media” value in series [1] is reported as “relatively low solubility”. As to `CN1CCN(c2nc(C3=C(c4c[nH]c5ccccc45)C(=O)NC3=O)c3ccccc3n2)CC1.O=C(O)/C=C\C(=O)O` [maleate, Maleate Salt of 3-(1.H.-indol-3-yl)-4-[2-(4-methyl-piperazin-1-yl)-quinazolin-4-yl]-pyrrole-2,5-dione], the “stability in the solid state” value in series [2] is recorded as “very good stability”. Still for that read-out and setting: the same measure for `CN1CCN(c2nc(C3=C(c4c[nH]c5ccccc45)C(=O)NC3=O)c3ccccc3n2)CC1.CS(=O)(=O)O` [mesylate salt, Mesylate Salt of 3-(1.H.-indol-3-yl)-4-[2-(4-methyl-piperazin-1-yl)-quinazolin-4-yl]-pyrrole-2,5-dione]: “very good stability”.

For the origin of these results see US20120053184A1, “SALTS OF 3-(1H-IND0L-3-YL)-4-[2-(4-METHYL-PIPERAZIN-I-YL)-QUINAZOLIN-4-YL]-PYRROLE-2, 5-DI ONE” (priority 2007, published 2012).
